Data from PubChem BioAssay (NCI).
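Each compound was tested at five concentrations against cells in 96-well plates for 48 hours. The concentration for 50% growth inhibition is given as GI50. TGI: concentration producing complete growth inhibition.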

Tests used:
Experiment in all cases: NCI-60 cell line screen, 48 h
EKVX NSCLC = test system: EKVX NSCLC
SK-MEL-28 melanoma = test system: SK-MEL-28 melanoma
HOP-92 NSCLC = test system: HOP-92 NSCLC
CAKI-1 renal = test system: CAKI-1 renal
UACC-257 melanoma = test system: UACC-257 melanoma
HS 578T breast = test system: HS 578T breast
MDA-MB-435 = test system: MDA-MB-435
A498 renal = test system: A498 renal
UO-31 renal = test system: UO-31 renal
SF-295 CNS = test system: SF-295 CNS
SK-MEL-2 melanoma = test system: SK-MEL-2 melanoma
DU-145 prostate = test system: DU-145 prostate
SF-268 CNS = test system: SF-268 CNS
HCT-15 colon = test system: HCT-15 colon
PC-3 prostate = test system: PC-3 prostate
RXF 393 renal = test system: RXF 393 renal
NCI/ADR-RES ovarian = test system: NCI/ADR-RES ovarian

O=C(C[n+]1ccn(CC(OCc2ccc(Cl)cc2Cl)c2ccc(Cl)cc2Cl)c1)c1ccc(F)cc1 (centres undefined)
GI50 (EKVX NSCLC): 1110 nM | TGI (EKVX NSCLC): 2400 nM | GI50 (SK-MEL-28 melanoma): 1700 nM | TGI (SK-MEL-28 melanoma): 3120 nM | GI50 (HOP-92 NSCLC): 1270 nM | TGI (HOP-92 NSCLC): 2840 nM | GI50 (CAKI-1 renal): 2050 nM | TGI (CAKI-1 renal): 18300 nM | GI50 (UACC-257 melanoma): 1430 nM | TGI (UACC-257 melanoma): 2800 nM | GI50 (HS 578T breast): 1600 nM | TGI (HS 578T breast): 3720 nM | GI50 (MDA-MB-435): 1310 nM | TGI (MDA-MB-435): 2720 nM | GI50 (A498 renal): 1420 nM | TGI (A498 renal): 3360 nM | GI50 (UO-31 renal): 2430 nM | TGI (UO-31 renal): 17000 nM | GI50 (SF-295 CNS): 1630 nM | TGI (SF-295 CNS): 3190 nM | GI50 (SK-MEL-2 melanoma): 1650 nM | TGI (SK-MEL-2 melanoma): 3110 nM | GI50 (DU-145 prostate): 1660 nM | TGI (DU-145 prostate): 3090 nM | GI50 (SF-268 CNS): 1440 nM | TGI (SF-268 CNS): 3090 nM | GI50 (HCT-15 colon): 4650 nM | TGI (HCT-15 colon): 67600 nM | GI50 (PC-3 prostate): 1550 nM | TGI (PC-3 prostate): 2910 nM | GI50 (RXF 393 renal): 1810 nM | TGI (RXF 393 renal): 3310 nM | GI50 (NCI/ADR-RES ovarian): 16500 nM | TGI (NCI/ADR-RES ovarian): 57500 nM
